Several values for one entry are separate records, joined by “and”; a condition that tells them apart may be missing. Identical values can stand only once. Entries after “also recorded” stand apart in the source; their conditions may differ. Counter-ions that a name gives are not always drawn.
Legend:
stress incontinence = experiment: Menopausal person with stress incontinence, 24 hour pad test; assay type: in vivo, human; details: single dose 3.75 mg, one person
Protocol: A second menopausal person, suffering from stress incontinence for at least 6 years, was treated with a single dose of 3.75 mg of leuprolide acetate. 24 hour pad tests conducted prior to treatment with the drug indicated they lost between 10 and 130 ml of urine on a daily basis due to their incontinence.

[1] = tested on: dogs suffering from urinary incontinence; experiment: Double-blind, placebo-control study with open label phase in 16 client owned dogs suffering from urinary incontinence; assay type: in vivo, dog; details: ongoing study
Protocol: In a second ongoing study, 16 client owned dogs suffering from urinary incontinence were enrolled in a double-blind, placebo-control study. In the initial phase of the study, dogs were randomly assigned to treatment with a long-acting GnRH analogue (leuprolide acetate) or placebo (dog owners and the investigators were blinded to treatment) along with a short course of therapy with phenylpropanolamine. 5 weeks after treatment with drug or placebo, dogs were evaluated and, if not fully continent, treated with a long-acting GnRH analogue (leuprolide acetate) in an open label phase of the study. To date only 1 of 10 dogs treated with placebo became continent vs. […] treated with drug during the blinded portion of the study. Overall, the results generated thus far indicate […] dogs treated with the long-acting GnRH analogue became continent and […] improved after discontinuation of the short acting phenylpropanolamine. Only 1 dog of 15 treated with the GnRH analogue was considered not to have improved following treatment with the drug.

[2] = tested on: bitches suffering from urinary incontinence after spaying; experiment: Fifteen bitches with urinary incontinence after spaying, given a slow-release s.c. GnRH analogue implant plus phenylpropanolamine for a limited period; assay type: in vivo, dog; details: for Side effects: dash = none
Protocol: Additionally, for a limited period the dogs were treated with phenylpropanolamine in a dosage of 1.5 mg/kg BW tid orally.
After discontinuation of the shortacting phenylpropanolamine 8 bitches remained continent. Their continence was therefore achieved solely by the treatment with the composition as described in the present invention. Seven out of fifteen dogs seemed to be much happier and in none of the dogs did the general condition deteriorate. […] The respective results are shown in more detail in table 1.

[3] = tested on: urinary incontinence of the bitch; details: 1.5 mg/kg BW p.o. given every 8 hours; incontinent spayed bitches; cited from earlier work
[4] = tested on: excessive growth of the undercoat (baby coat) due to spaying; experiment: Two cocker spaniel bitches with excessive growth of the undercoat due to spaying, slow-release s.c. implant; assay type: in vivo, dog; details: 5 mg slow release s.c.
Protocol: Two cocker spaniel bitches belonging to the same owner were showing excessive growth of the undercoat due to spaying. […] Both dogs were first clinically examined and thereafter a GnRH analogue (Deslorelin) in a dosage of 5 mg, in slow release form, was subcutaneously implanted between the shoulder blades.

[5] = tested on: urge incontinence and hotflushes; experiment: Perimenopausal person with urge incontinence and hot flushes; assay type: in vivo, human; details: 3.75 mg; one perimenopausal person
[6] = 11,25 mg slow release s.c. implant, no 'with PPA' mark, individual bitches, listed as Leuprorelin acetate
[7] = 11,25 mg slow release s.c. implant, with PPA, individual bitch
[8] = 6 mg slow release s.c. implant, no 'with PPA' mark, individual bitches
[9] = 12 mg slow release s.c. implant, no 'with PPA' mark, individual bitches

CCNC(=O)[C@@H]1CCCN1C(=O)[C@H](CCCNC(=N)N)NC(=O)[C@H](CC(C)C)NC(=O)[C@@H](CC(C)C)NC(=O)[C@H](Cc1ccc(O)cc1)NC(=O)[C@H](CO)NC(=O)[C@H](Cc1c[nH]c2ccccc12)NC(=O)[C@H](Cc1c[nH]cn1)NC(=O)[C@@H]1CCC(=O)N1 [Leuprorelinacetate, leuprolide acetate]
Daily urine loss, pad test (stress incontinence; 2 weeks after treatment, before treatment between 10 and 130 ml daily): 1 mL | Patient's satisfaction with the effects of the therapy (stress incontinence): very satisfied | Dogs that became continent after discontinuation of phenylpropanolamine, overall ([1]; of 15 dogs treated (blinded plus open label)): 6 dogs | Dogs considered not to have improved following treatment ([1]; of 15 treated): 1 dog | Remaining dogs that improved after discontinuation of phenylpropanolamine ([1]; of the remaining dogs of 15 treated): 9 dogs | Dogs that became continent during the blinded portion of the study ([1]; printed '3 to 8 dogs treated with drug', 5 weeks after treatment, with short course of phenylpropanolamine): 3 dogs | Duration of effect after treatment ([2]; 11,25 mg slow release s.c. implant, no 'with PPA' mark, individual bitches): 0 days | Duration of effect after treatment [2, 6]: >14 days | Effect on incontinence [2, 6]: 100% | Duration of effect after treatment [2, 7]: >64 days | Effect on incontinence [2, 7]: 100%

Deslorelin acetate [Deslorelinacetate]
Side effects ([2]; 6 mg slow release s.c. implant, individual bitches): More playfull | Duration of effect after treatment [2, 8]: >47 days and >340 days | Effect on incontinence [2, 8]: 100% | Effect on incontinence ([2]; 6 mg slow release s.c. implant, with PPA, individual bitch): 100% | Side effects ([2]; 12 mg slow release s.c. implant, individual bitches): less aggressive; also recorded: more activ | Duration of effect after treatment [2, 9]: 64 days and >64 days | Effect on incontinence [2, 9]: 100% | Effect on incontinence ([2]; 12 mg slow release s.c. implant, with PPA, individual bitches): 80% and 100% (2×)

CC(N)C(O)c1ccccc1 (centres unmarked) [phenylpropanolamine]
Continence achieved [3]: 74% | Showed some improvement [3]: at least 24%

Buserelin acetate [Buserelinacetate]
Duration of effect after treatment ([2]; 6,3 mg slow release s.c. implant, individual bitches): 44 days and 83 days | Effect on incontinence ([2]; 6,3 mg slow release s.c. implant, no 'with PPA' mark, individual bitches): 100%

CN[C@@H](C)[C@H](O)c1ccccc1 [ephedrinhydrochloride]
Continence achieved [3]: 74% | Showed some improvement [3]: at least 24%

CCNC(=O)[C@@H]1CCCN1C(=O)[C@H](CCCN=C(N)N)NC(=O)[C@H](CC(C)C)NC(=O)[C@@H](Cc1c[nH]c2ccccc12)NC(=O)[C@H](Cc1ccc(O)cc1)NC(=O)[C@H](CO)NC(=O)[C@H](Cc1c[nH]c2ccccc12)NC(=O)[C@H](Cc1cnc[nH]1)NC(=O)[C@@H]1CCC(=O)N1 [Deslorelin]
Coat quality ([4]; 5 weeks after the injection, both dogs): obvious amelioration of the coat quality | Signs of baby coat ([4]; 21 weeks after injection): no signes of “baby coat” were apparent anymore

Triptorelin acetate [Triptorelinacetate]
Duration of effect after treatment ([2]; 3,75 mg slow release s.c. implant (dose too low), individual bitch): 0 | Period of improvement of symptoms [5]: about 4 weeks
